The values below come from article PMC10962448, “The preclinical and phase 1 development of the novel oral cathepsin C inhibitor BI 1291583” (ERJ Open Research, 2024).

What is called Kd is the concentration at which binding is half-saturated. The low end stands for higher affinity, the high end for lower affinity.

This test deals with T1, cathepsin C (CatC; dipeptidyl peptidase 1) (Homo sapiens, UniProt P53634).
T1 construct: gene CTSC
Kind of test: surface plasmon resonance with isolated human CatC (pH […]); enzymatic IC50 […]. The class given is binding. (In general: In SPR one partner is held on a chip, and binding of the other changes the refractive index at the surface.)

T1 sequence (P53634 25-134): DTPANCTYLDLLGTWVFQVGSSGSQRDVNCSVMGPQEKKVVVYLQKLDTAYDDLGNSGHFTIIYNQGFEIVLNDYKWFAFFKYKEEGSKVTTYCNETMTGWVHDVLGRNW
T1 sequence (P53634 231-394): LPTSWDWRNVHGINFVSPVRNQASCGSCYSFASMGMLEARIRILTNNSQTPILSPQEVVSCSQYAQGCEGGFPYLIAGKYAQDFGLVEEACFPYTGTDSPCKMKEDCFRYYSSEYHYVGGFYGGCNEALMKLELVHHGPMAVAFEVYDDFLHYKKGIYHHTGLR
T1 sequence (P53634 395-463): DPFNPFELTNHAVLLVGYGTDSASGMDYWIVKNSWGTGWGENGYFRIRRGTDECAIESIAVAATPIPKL

BI 1291583 gave a Kd of 0.43 nM.
